Where two headings read alike, the source gives them in different places.
Experiments:
Format in all cases: cell-based
[1] = test system: Paracoccus carotinifaciens strain E-396 (FERM BP-4283)
Description: (§1) Subsequently, a medium of the following composition (glucose 30 g/L, filtered corn steep liquor 30 g/L, ammonium sulfate 1.5 g/L, potassium dihydrogen phosphate 1.5 g/L, disodium hydrogen phosphate dodecahydrate 3.8 g/L, calcium chloride dihydrate 5.0 g/L, magnesium sulfate heptahydrate 0.7 g/L, iron sulfate heptahydrate 1.0 g/L, silicon-based defoaming agent 0.2 g/L) was dispensed in 7.2 ml volumes into cotton-plugged test tubes having an inner diameter of 18 mm to prepare 13 test tubes containing a test tube medium for production. The ingredients used to prepare the test tube medium for production were obtained from lots where microbial cells had been confirmed not to grow well.
The 12 trace metals indicated in Table 1 were separately prepared in 0.8 ml volumes to have their final concentrations indicated in Table 1 and then added to the above 12 test tubes for production, respectively. The remaining one test tube was supplemented with 0.8 ml of ion exchanged water.
The resulting culture solution was then inoculated in 0.05 ml volumes into the 13 types of test tube media for production and cultured under shaking at 28° C. for 4 days at 300 spm.

[2] = test system: Paracoccus carotinifaciens strain E-396 (FERM BP-4283); experiment: Example 4: medium lots A-E with cobalt chloride, growth (OD610) and carotenoid levels (HPLC); details: for Astaxanthin / OD610 / Total carotenoid: cobalt chloride added 0.1 mg/L (0.42 μmol/L)
Description: (§2) In the following examples, carotenoids were quantified by high performance liquid chromatography (HPLC) as follows.
(§3) Two columns of Inertsil SIL-100A, 5 μm (ϕ4.6 mm×250 mm) (GL Sciences Inc., Japan) were connected together for use as a column. For elution, a mixed solution of n-hexane, tetrahydrofuran and methanol (40:20:1) serving as a mobile phase was passed through the column at a flow rate of 1.0 mL per minute at a constant temperature around room temperature. For measurement, samples were each dissolved in tetrahydrofuran and diluted 100-fold with the mobile phase, and 20 μL aliquots of the resulting dilutions were injected into the column. The column eluates were detected at a wavelength of 470 nm. As a standard for quantification, astaxanthin (SIGMA, Cat. No. A9335) was used. The astaxanthin concentration of the standard solution was determined using the following equation after measuring the absorbance (A) of the standard solution at 477 nm and the area percentage % (B) of the astaxanthin peak in HPLC analysis under the above conditions.
Subsequently, medium ingredients from different manufacturers and lots were combined to prepare 5 types of media, i.e., A, B, C, D and E indicated in Table 7, each having the following composition (glucose 30 g/L, filtered corn steep liquor 30 g/L, ammonium sulfate 1.5 g/L, potassium dihydrogen phosphate 1.5 g/L, disodium hydrogen phosphate dodecahydrate 3.8 g/L, calcium chloride dihydrate 5.0 g/L, magnesium sulfate heptahydrate 0.7 g/L, iron sulfate heptahydrate 1.0 g/L, silicon-based defoaming agent 0.2 g/L). These media were each dispensed in 7.2 ml volumes into cotton-plugged test tubes having an inner diameter of 18 mm to prepare 2 test tubes for each test tube medium for production, i.e., 10 test tubes in total.
The resulting culture solution was then inoculated in 0.05 ml volumes into the 5 types of test tube media for production having different cobalt concentrations (10 test tubes in total), and cultured under shaking at 28° C. for 4 days at 300 spm.
(§4) After being cultured for 4 days, the culture solutions were each measured for microbial cell growth by OD610 and measure for carotenoid levels by HPLC.

[3] = test system: Paracoccus zeaxanthinifaciens strain ATCC 21588; experiment: Example 7: cobalt concentration series, growth (OD610) and carotenoid levels (HPLC)
Description: as §2, §3
as §1, with “9” for “13”
The resulting culture solution was then inoculated in 0.05 ml volumes into the 9 types of test tube media for production having different cobalt concentrations, and cultured under shaking at 28° C. for 4 days at 300 spm.
as §4

[4] = medium lot A, total cobalt 0.42 μmol/L
[5] = medium lot B, total cobalt 0.62 μmol/L
[6] = medium lot C, total cobalt 0.46 μmol/L
[7] = medium lot D, total cobalt 0.43 μmol/L
[8] = medium lot E, total cobalt 0.49 μmol/L
[9] = final concentration of 0.1 mg/L, regardless of manufacturer and lot of medium ingredient
[10] = cobalt added 0.00042 μmol/L, total 0.0024 μmol/L
[11] = cobalt added 0.0042 μmol/L, total 0.0062 μmol/L
[12] = cobalt added 0.021 μmol/L, total 0.023 μmol/L
[13] = cobalt added 0.042 μmol/L, total 0.044 μmol/L
[14] = cobalt added 0.42 μmol/L, total 0.42 μmol/L
[15] = cobalt added 4.2 μmol/L, total 4.2 μmol/L
[16] = cobalt added 21 μmol/L, total 21 μmol/L
[17] = cobalt added 42 μmol/L, total 42 μmol/L

Q: How did the “microbial cell growth (by OD610), in words” value [1] turn out when `O.O.O.O.O.O.[Cl-].[Cl-].[Co+2]` [Cobalt chloride hexahydrate] was run?
A: good growth

Q: And the OD610 ([1]; each trace metal added singly at final concentration of Table 1, shaking at 28° C. for 4 days)?
A: 32

Q: What about the Astaxanthin ([2]; Average of medium lots A-E) of the same molecule?
A: 28 mg/L

Q: What about the OD610 ([2]; Average of medium lots A-E) of the same molecule?
A: 37

Q: What about the Total carotenoid ([2]; Average of medium lots A-E) of the same molecule?
A: 41 mg/L

Q: And the Astaxanthin [2, 4]?
A: 29 mg/L

Q: And the OD610 [2, 4]?
A: 37

Q: What about the Total carotenoid [2, 4] of the same molecule?
A: 41 mg/L

Q: What about the Astaxanthin [2, 5] of the same molecule?
A: 26 mg/L

Q: And the OD610 [2, 5]?
A: 39

Q: And the Total carotenoid [2, 5]?
A: 40 mg/L

Q: And the Astaxanthin [2, 6]?
A: 29 mg/L

Q: What about the OD610 [2, 6] of the same molecule?
A: 38

Q: And the Total carotenoid [2, 6]?
A: 44 mg/L

Q: And the Astaxanthin [2, 7]?
A: 27 mg/L

Q: And the OD610 [2, 7]?
A: 36

Q: What about the Total carotenoid [2, 7] of the same molecule?
A: 41 mg/L

Q: And the Astaxanthin [2, 8]?
A: 28 mg/L

Q: What about the OD610 [2, 8] of the same molecule?
A: 37

Q: What about the Total carotenoid [2, 8] of the same molecule?
A: 40 mg/L

Q: What about the “bacterial growth, in words” value [2, 9] of the same molecule?
A: high

Q: And the “carotenoid productivity, in words” value [2, 9]?
A: high

Q: What about the “Carotenoid: Zeaxanthin” value [3, 10] of the same molecule?
A: 0.6 mg/L

Q: And the “Carotenoid: β-Carotene” value [3, 10]?
A: 0.0 mg/L

Q: What about the “Carotenoid: β-Cryptoxanthin” value [3, 10] of the same molecule?
A: 0.0 mg/L

Q: And the OD610 [3, 10]?
A: 2

Q: And the Total carotenoid [3, 10]?
A: 0.6 mg/L

Q: And the “Carotenoid: Zeaxanthin” value [3, 11]?
A: 2.0 mg/L

Q: What about the “Carotenoid: β-Carotene” value [3, 11] of the same molecule?
A: 0.2 mg/L

Q: What about the “Carotenoid: β-Cryptoxanthin” value [3, 11] of the same molecule?
A: 0.1 mg/L

Q: What about the OD610 [3, 11] of the same molecule?
A: 6

Q: What about the Total carotenoid [3, 11] of the same molecule?
A: 2.3 mg/L

Q: What about the “Carotenoid: Zeaxanthin” value [3, 12] of the same molecule?
A: 10.6 mg/L

Q: What about the “Carotenoid: β-Carotene” value [3, 12] of the same molecule?
A: 0.7 mg/L

Q: And the “Carotenoid: β-Cryptoxanthin” value [3, 12]?
A: 0.3 mg/L

Q: And the OD610 [3, 12]?
A: 25

Q: And the Total carotenoid [3, 12]?
A: 11.6 mg/L

Q: And the “Carotenoid: Zeaxanthin” value [3, 13]?
A: 13.6 mg/L

Q: What about the “Carotenoid: β-Carotene” value [3, 13] of the same molecule?
A: 0.8 mg/L

Q: What about the “Carotenoid: β-Cryptoxanthin” value [3, 13] of the same molecule?
A: 0.3 mg/L

Q: And the OD610 [3, 13]?
A: 29

Q: What about the Total carotenoid [3, 13] of the same molecule?
A: 14.7 mg/L

Q: And the “Carotenoid: Zeaxanthin” value [3, 14]?
A: 13.4 mg/L

Q: And the “Carotenoid: β-Carotene” value [3, 14]?
A: 0.7 mg/L

Q: What about the “Carotenoid: β-Cryptoxanthin” value [3, 14] of the same molecule?
A: 0.3 mg/L

Q: What about the OD610 [3, 14] of the same molecule?
A: 29

Q: And the Total carotenoid [3, 14]?
A: 14.4 mg/L

Q: And the “Carotenoid: Zeaxanthin” value [3, 15]?
A: 12.9 mg/L

Q: What about the “Carotenoid: β-Carotene” value [3, 15] of the same molecule?
A: 0.7 mg/L

Q: And the “Carotenoid: β-Cryptoxanthin” value [3, 15]?
A: 0.3 mg/L

Q: What about the OD610 [3, 15] of the same molecule?
A: 28

Q: What about the Total carotenoid [3, 15] of the same molecule?
A: 13.9 mg/L

Q: What about the “Carotenoid: Zeaxanthin” value [3, 16] of the same molecule?
A: 10.8 mg/L

Q: And the “Carotenoid: β-Carotene” value [3, 16]?
A: 0.6 mg/L

Q: And the “Carotenoid: β-Cryptoxanthin” value [3, 16]?
A: 0.4 mg/L

Q: And the OD610 [3, 16]?
A: 24

Q: And the Total carotenoid [3, 16]?
A: 11.8 mg/L

Q: What about the “Carotenoid: Zeaxanthin” value [3, 17] of the same molecule?
A: 6.4 mg/L

Q: What about the “Carotenoid: β-Carotene” value [3, 17] of the same molecule?
A: 0.3 mg/L

Q: What about the “Carotenoid: β-Cryptoxanthin” value [3, 17] of the same molecule?
A: 0.3 mg/L

Q: And the OD610 [3, 17]?
A: 18

Q: What about the Total carotenoid [3, 17] of the same molecule?
A: 7.0 mg/L
